Assay results taken from paper PMC11206988, “Study on the Effect of Pharmaceutical Excipient PEG400 on the Pharmacokinetics of Baicalin in Cells Based on MRP2, MRP3, and BCRP Efflux Transporters” (Pharmaceutics, 2024).
Like-named read-outs stand apart in the source and are kept apart here.

Experiments:
Assay type in all cases: in vitro ADME
BCRP = target: T1, BCRP (Homo sapiens, UniProt Q9UNQ0); assay: Transport of baicalin across MDCK II-BCRP cell monolayer (transwell); conditions: pH 7.4, MDCK II-BCRP
T1 construct: expressed in transfected cells; host or cells: MDCK II
T1 sequence (Q9UNQ0 1-655): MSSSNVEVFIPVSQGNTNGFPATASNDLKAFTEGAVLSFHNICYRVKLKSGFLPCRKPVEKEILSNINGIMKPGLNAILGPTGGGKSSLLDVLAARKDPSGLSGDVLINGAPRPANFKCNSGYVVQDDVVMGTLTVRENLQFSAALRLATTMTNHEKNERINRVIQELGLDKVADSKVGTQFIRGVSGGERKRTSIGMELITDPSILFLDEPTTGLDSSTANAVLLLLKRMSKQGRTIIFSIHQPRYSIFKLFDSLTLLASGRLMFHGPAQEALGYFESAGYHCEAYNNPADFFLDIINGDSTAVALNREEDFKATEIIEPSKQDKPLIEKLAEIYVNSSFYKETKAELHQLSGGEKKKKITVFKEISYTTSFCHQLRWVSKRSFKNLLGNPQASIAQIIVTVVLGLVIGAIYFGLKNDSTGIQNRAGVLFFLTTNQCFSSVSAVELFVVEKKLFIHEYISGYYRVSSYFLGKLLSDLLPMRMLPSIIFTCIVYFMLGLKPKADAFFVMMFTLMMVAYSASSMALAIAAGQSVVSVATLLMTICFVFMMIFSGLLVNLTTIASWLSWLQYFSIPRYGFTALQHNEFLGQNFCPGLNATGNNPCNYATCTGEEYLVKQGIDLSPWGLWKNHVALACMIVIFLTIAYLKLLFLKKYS
Procedure: (§1) The cells were inoculated at a density of 0.5 mL (1 × 10^5) in the upper layer of the transwell plate (AP side), and the culture was changed daily after the lower layer was added with 1.5 mL of complete medium without cells every other day. After 5–7 days of growth, the supernatant was aspirated and discarded, and the cell monolayer was rinsed twice with 37 °C Hank’s Balanced Salt Solution (HBSS, pH 7.4). The electrical resistance of the cell monolayer compartments was measured with a resistivity meter (TEER), and the integrity of the cell monolayer was monitored using TEER. The differentiation of MDCK II-WT, MDCK II-MRP2, MDCK II-MRP3, and MDCK II-BCRP cells was examined by determining sodium fluorescein permeability prior to transit experiments. This was done in order to determine the integrity of the cell monolayer. When the TEER value of the cell monolayer was greater than 150 Ω·cm^2 and the MDCK II-MRP2, MDCK II-MRP3, and MDCK II-BCRP sodium fluorescein permeability was less than 0.5 × 10^−6 cm/s or the MDCK II-WT sodium fluorescein permeability was less than 1 × 10^−6 cm/s, the cell monolayer was considered intact and suitable for transit experiments. TEER = (TEERcell monolayer − TEERblank) × Aarea(1) wherein TEERcell monolayer is the resistance of the cell monolayer read directly from the Millicell ERS-2 resistivity meter, and TEERblank is the resistance read by inserting a blank HBSS (no cells) only. Aarea is the surface area of the filter membrane, 1.12 cm^2.
(§2) In this experiment, a 100 μM baicalin solution (dissolved in HBSS) containing different concentrations of PEG400 (0.25%, 0.5%, and 1%) was employed as the test solution, while a solution without PEG400 was used as the blank test solution, which was added to AP or BL chambers, respectively. In the top to basolateral (AP-BL) transport experiment, the 0.5 mL sample added to the apical side (AP) was utilized as the supply room, and the HBSS preheated to 1.5 mL 37 °C was added to the basolateral (BL) as the receiving chamber. Conversely, in the basal low lateral to top (BL-AP) transport experiment, the 1.5 mL sample (dissolved in HBSS) was added to the BL side as the supply room, and the 0.5 mL preheated HBSS was added as a receiving room on the AP side. Once the aforementioned steps had been completed, the transwell was placed on a 37 °C thermostatic oscillator at 60 r/min, and 100 μL was withdrawn from the receiving cell or 10 μL from the supply chamber at 30, 60, 90, and 120 min, depending on the experiment, and replenished with an equal volume of blank 37 °C preheated HBSS. The samples were utilized to precipitate the proteins with 100 μL of methanol containing the internal standard for 10 min. After centrifugation at 16,000× g for 15 min at 4 °C, the supernatant was collected in a volume of 70 μL. The contents were determined by UPLC-MS/MS, and apparent permeability coefficients (PAPP) and efflux ratios (ER) were calculated.
(§3) The formulas for calculating Papp and ER of monolayer and monolayer are as follows:(2) Papp=dQ/dt/AC0 wherein dQ/dt (ng/mL·s) is the transit rate (ng/mL·s); A is the membrane area (1.12 cm^2); and C0 (ng/mL) is the initial concentration of the sample in the supply chamber. ER = PappBL-AP/PappAP-BL (3) wherein PappBL-AP is the apparent permeability coefficient when the BL is added to the sample, and PappAP-BL is the apparent permeability coefficient when the sample is added at the top side (AP).

[1] = Transport of baicalin across MDCK II-WT cell monolayer (transwell); conditions: dog, MDCK, pH 7.4, MDCK II-WT; for efflux ratio at 120 min, 100 μM: read-out: ER
Procedure: as §1, §2, §3

MDCK II-WT cells = assay: as above; conditions: MDCK II-WT
Procedure: as §1, §2, §3

MDCK II-MRP3 = target: T2, MDCK II-MRP3 (Homo sapiens, UniProt O15438); assay: Transport of baicalin across MDCK II-MRP3 cell monolayer (transwell); conditions: MDCK II-MRP3; high-concentration PEG400 group vs control group
T2 construct: host or cells: MDCK II
Procedure: as §1, §2, §3

T2 sequence (O15438 whole entry): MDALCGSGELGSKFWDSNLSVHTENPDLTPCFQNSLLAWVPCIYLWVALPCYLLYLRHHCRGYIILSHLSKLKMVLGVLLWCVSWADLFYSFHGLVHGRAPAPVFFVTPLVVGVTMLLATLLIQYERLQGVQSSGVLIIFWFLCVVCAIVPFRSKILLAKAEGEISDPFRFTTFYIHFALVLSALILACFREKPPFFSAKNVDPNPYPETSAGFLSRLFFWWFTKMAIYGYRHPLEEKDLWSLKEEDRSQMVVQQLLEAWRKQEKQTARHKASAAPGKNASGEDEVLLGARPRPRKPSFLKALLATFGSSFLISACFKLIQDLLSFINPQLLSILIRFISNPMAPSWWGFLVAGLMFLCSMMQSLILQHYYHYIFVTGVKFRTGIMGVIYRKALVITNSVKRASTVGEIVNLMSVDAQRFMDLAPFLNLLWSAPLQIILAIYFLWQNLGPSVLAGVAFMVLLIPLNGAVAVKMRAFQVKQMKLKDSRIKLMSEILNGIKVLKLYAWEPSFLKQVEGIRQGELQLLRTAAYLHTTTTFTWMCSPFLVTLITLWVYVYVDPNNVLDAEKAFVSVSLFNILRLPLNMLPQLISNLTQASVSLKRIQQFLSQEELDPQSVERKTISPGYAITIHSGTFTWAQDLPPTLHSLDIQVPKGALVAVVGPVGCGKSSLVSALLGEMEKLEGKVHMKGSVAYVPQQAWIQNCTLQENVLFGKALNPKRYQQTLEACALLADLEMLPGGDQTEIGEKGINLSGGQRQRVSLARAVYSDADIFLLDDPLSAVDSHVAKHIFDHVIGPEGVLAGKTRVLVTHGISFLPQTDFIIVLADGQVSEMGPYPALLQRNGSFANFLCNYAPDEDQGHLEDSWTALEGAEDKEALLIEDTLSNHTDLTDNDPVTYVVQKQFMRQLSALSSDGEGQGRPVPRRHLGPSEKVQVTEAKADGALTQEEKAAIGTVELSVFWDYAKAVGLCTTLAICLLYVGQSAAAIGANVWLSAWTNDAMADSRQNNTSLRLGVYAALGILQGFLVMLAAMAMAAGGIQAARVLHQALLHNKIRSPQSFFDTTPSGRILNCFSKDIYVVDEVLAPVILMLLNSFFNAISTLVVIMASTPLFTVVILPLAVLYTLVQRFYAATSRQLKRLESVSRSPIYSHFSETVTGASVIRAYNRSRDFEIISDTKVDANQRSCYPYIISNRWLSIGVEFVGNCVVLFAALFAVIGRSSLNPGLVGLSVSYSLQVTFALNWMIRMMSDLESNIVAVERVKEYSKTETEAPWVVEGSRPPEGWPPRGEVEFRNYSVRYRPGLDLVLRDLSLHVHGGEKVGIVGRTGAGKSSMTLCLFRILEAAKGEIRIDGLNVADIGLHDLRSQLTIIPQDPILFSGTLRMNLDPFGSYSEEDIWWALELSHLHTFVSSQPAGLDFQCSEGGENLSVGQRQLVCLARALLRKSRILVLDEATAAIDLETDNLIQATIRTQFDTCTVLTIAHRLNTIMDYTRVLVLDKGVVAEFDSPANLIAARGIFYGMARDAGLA

Work on O=C(O)[C@H]1O[C@@H](Oc2cc3oc(-c4ccccc4)cc(=O)c3c(O)c2O)[C@H](O)[C@@H](O)[C@@H]1O [BG, Baicalein-7-O-β-D-glucuronide] yielded a Papp A→B at 120 min, 100 μM (BCRP; 100 μM BG + 0.25% PEG400) of 5.64 ± 0.48 ×10⁻⁶ cm/s, a Papp B→A at 120 min, 100 μM (BCRP; 100 μM BG + 0.25% PEG400) of 8.98 ± 0.42 ×10⁻⁶ cm/s and an efflux ratio at 120 min, 100 μM (BCRP; 100 μM BG + 0.25% PEG400, read-out: ER) of 1.59 ± 0.06. The Papp A→B at 120 min, 100 μM (BCRP; 100 μM BG + 0.5% PEG400) was 7.4 ± 0.43 ×10⁻⁶ cm/s, the Papp B→A at 120 min, 100 μM (BCRP; 100 μM BG + 0.5% PEG400) was 7.51 ± 0.47 ×10⁻⁶ cm/s and the efflux ratio at 120 min, 100 μM (BCRP; 100 μM BG + 0.5% PEG400, read-out: ER) was 1.02 ± 0.04. The Papp A→B at 120 min, 100 μM (BCRP; 100 μM BG + 1% PEG400) was 8.59 ± 0.19 ×10⁻⁶ cm/s, the Papp B→A at 120 min, 100 μM (BCRP; 100 μM BG + 1% PEG400) was 6.9 ± 0.04 ×10⁻⁶ cm/s and the efflux ratio at 120 min, 100 μM (BCRP; 100 μM BG + 1% PEG400, read-out: ER) was 0.8 ± 0.02. For the same compound, the Papp A→B at 120 min, 100 μM (BCRP; 100 μM BG alone) was 3.43 ± 0.07 ×10⁻⁶ cm/s, the Papp B→A at 120 min, 100 μM (BCRP; 100 μM BG alone) was 10.34 ± 0.02 ×10⁻⁶ cm/s and the efflux ratio at 120 min, 100 μM (BCRP; 100 μM BG alone, read-out: ER) was 3.01 ± 0.05. It also gave a Papp A→B at 120 min, 100 μM ([1]; 100 μM BG + 0.25% PEG400) of 4.57 ± 1.08 ×10⁻⁶ cm/s, a Papp B→A at 120 min, 100 μM ([1]; 100 μM BG + 0.25% PEG400) of 7.94 ± 0.99 ×10⁻⁶ cm/s and an efflux ratio at 120 min, 100 μM ([1]; 100 μM BG + 0.25% PEG400) of 1.94 ± 0.27. The Papp A→B at 120 min, 100 μM ([1]; 100 μM BG + 0.5% PEG400) was 5.24 ± 0.53 ×10⁻⁶ cm/s, the Papp B→A at 120 min, 100 μM ([1]; 100 μM BG + 0.5% PEG400) was 6.78 ± 1.19 ×10⁻⁶ cm/s and the efflux ratio at 120 min, 100 μM ([1]; 100 μM BG + 0.5% PEG400) was 1.53 ± 0.14. For the same compound, the Papp A→B at 120 min, 100 μM ([1]; 100 μM BG + 1% PEG400) was 5.47 ± 0.94 ×10⁻⁶ cm/s, the Papp B→A at 120 min, 100 μM ([1]; 100 μM BG + 1% PEG400) was 3.61 ± 0.26 ×10⁻⁶ cm/s and the efflux ratio at 120 min, 100 μM ([1]; 100 μM BG + 1% PEG400) was 1.19 ± 0.12. The Papp A→B at 120 min, 100 μM ([1]; 100 μM BG alone) was 3.18 ± 0.07 ×10⁻⁶ cm/s, the Papp B→A at 120 min, 100 μM ([1]; 100 μM BG alone) was 11.6 ± 1 ×10⁻⁶ cm/s and the efflux ratio at 120 min, 100 μM ([1]; 100 μM BG alone) was 2.58 ± 0.27. It also gave an ER (MDCK II-WT cells; 100 μM BG + 0.25% PEG400) of 1.8 ± 0.44, an ER (MDCK II-WT cells; 100 μM BG + 0.5% PEG400) of 1.29 ± 0.11 and an ER (MDCK II-WT cells; 100 μM BG + 1% PEG400) of 0.67 ± 0.07. The ER (MDCK II-WT cells; 100 μM BG alone) was 3.64 ± 0.28 and the “increase in the PAPPAP-BL/PAPP BL-AP ratio” value (MDCK II-MRP3) was 5.97 fold.
